Patent US8338422B2, “Indolin-2-ones and aza-indolin-2-ones” (Janssen Pharmaceutica NV, priority 2007, dated 2012)
Where “and” joins values, the source holds several entries; their conditions need not be identical. Equal values may be shown once.

What was measured:
Type in all cases: biochemical
PLK4 (h) = PLK4 (h) (Homo sapiens, UniProt O00444); assay: PLK-4 human kinase assay (SPA); settings: read-out: PLK4 pIC50 (converted)
Protocol: (§1) The in vitro inhibition of a panel of kinases was assessed using either the scintillation proximity assay (SPA) as described by Cook, N. D. et al., Advances in Experimental Medicine and Biology (1991), 36; p. 525-528; or the Fluorescence Resonance Energy Transfer (FRET) technology as described by Rodems, S. M. et al., Assay Drug Develop. Technol. (2002), 1; p. 9-19.
(§2) In the SPA technology the activity of the kinase of interest is measured using an appropriate biotinylated substrate that is incubated with the aforementioned kinase protein in the presence of (^33P) radiolabeled ATP. (^33P) Phosporylation of the substrate is subsequently measured through binding of the phosphorylated substrate to streptavidine coated beads that are based on the scintillant poly(vinyl toluene) (PVT-Beads). The scintillation intensity is detected by imaging on Leadseeker.
(§3) All kinases are pre-diluted to a 10× working concentration prior to addition into the assay. The composition of the dilution buffer for each kinase is detailed below.
In a final reaction volume of 30 μl PLK4 (h) (19 μg/ml) is incubated with 50 mM Hepes pH 8.0, 10 mM MgCl2, 50 mM NaCl, 1 mM NaF, 1 mM DTT, 10 μM of peptide Biotin-RPRGQRDSSYYWE-OH, 1 μM ATP and 2 nM [γ-^33P-ATP] (6.0 μCi/ml). After incubation of 60 minutes at room temperature, the reaction is stopped by addition of 40 μl, of stop solution containing 8.7 mM EDTA, BSA 0.17%, 0.17% Triton X-100, 1.7 mg/ml SPA beads (GE-healthcare). The plate is centriguged and read for Scintillation imaging on Leadseeker.

AuroraB (h) = AuroraB (h) (Homo sapiens, UniProt Q96GD4); assay: Aurora-B human kinase assay (SPA); settings: read-out: AuroraB pIC50 (converted)
Sequence of AuroraB (h) (Q96GD4 whole entry): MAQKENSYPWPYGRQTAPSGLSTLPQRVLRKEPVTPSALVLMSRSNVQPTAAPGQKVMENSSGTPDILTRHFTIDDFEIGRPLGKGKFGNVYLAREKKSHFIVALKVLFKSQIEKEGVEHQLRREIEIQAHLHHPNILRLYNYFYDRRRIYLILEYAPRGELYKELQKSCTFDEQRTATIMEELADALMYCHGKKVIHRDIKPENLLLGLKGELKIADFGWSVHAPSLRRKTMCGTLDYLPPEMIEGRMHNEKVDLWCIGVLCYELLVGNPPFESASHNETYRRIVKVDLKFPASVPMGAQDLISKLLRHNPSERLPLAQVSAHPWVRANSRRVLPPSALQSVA
Protocol: as §1, §2, §3
In a final reaction volume of 30 μl, AuroraB (h) (0.5 μg/ml) is incubated with 60 mM Hepes pH 7.5, 3 mM MgCl2, 3 mM MnCl2, 3 μM Na3VO4, 0.05 mg/ml PEG, 2 mM DTT, 3 μM Biotin-[…]-OH, 0.5 μM ATP and 2.2 nM [γ-^33P-ATP] (6.8 μCi/ml). After incubation of 60 minutes at room temperature, the reaction is stopped by addition of 40 μL of stop solution containing 8.7 mM EDTA, BSA 0.17%, 0.17% Triton X-100, 5 mg/ml SPA beads (GE-healthcare). The plate is centriguged and read for Scintillation imaging on Leadseeker.

GSK3β (h) = GSK3β (h) (Homo sapiens, UniProt P49841); assay: GSK-3β human kinase assay (SPA); settings: read-out: GSK3B pIC50 (converted)
Sequence of GSK3β (h) (P49841 whole entry): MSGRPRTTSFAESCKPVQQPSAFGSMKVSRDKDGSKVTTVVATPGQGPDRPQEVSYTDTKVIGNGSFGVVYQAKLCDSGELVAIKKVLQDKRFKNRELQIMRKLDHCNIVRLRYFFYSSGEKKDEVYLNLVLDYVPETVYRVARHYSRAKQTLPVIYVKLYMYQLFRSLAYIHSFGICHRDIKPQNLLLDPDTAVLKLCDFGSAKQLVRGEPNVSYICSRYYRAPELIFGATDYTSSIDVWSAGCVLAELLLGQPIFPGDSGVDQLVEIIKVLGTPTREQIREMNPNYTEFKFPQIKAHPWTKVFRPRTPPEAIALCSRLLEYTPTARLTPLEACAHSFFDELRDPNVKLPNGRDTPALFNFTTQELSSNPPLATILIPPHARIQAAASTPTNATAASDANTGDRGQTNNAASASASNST
Protocol: as §1, §2, §3
In a final reaction volume of 30 μl, GSK3β (h) (1 μg/ml) is incubated with 25 mM Tris pH 7.4, 10 mM MgCl2, 1 mM DTT, 1 μM peptide Biotin-KRREILSRRPSYR-OH, 1 μM ATP and 2 nM [γ-^33P-ATP] (6.0 μCi/ml). After incubation of 60 minutes at room temperature, the reaction is stopped by addition of […] of stop solution containing 8.7 mM EDTA, BSA 0.17%, 0.17% Triton X-100, 6.25 mg/ml SPA beads (GE-healthcare). The plate is centriguged and read for Scintillation imaging on Leadseeker.

Sequence of PLK4 (h) (O00444 whole entry): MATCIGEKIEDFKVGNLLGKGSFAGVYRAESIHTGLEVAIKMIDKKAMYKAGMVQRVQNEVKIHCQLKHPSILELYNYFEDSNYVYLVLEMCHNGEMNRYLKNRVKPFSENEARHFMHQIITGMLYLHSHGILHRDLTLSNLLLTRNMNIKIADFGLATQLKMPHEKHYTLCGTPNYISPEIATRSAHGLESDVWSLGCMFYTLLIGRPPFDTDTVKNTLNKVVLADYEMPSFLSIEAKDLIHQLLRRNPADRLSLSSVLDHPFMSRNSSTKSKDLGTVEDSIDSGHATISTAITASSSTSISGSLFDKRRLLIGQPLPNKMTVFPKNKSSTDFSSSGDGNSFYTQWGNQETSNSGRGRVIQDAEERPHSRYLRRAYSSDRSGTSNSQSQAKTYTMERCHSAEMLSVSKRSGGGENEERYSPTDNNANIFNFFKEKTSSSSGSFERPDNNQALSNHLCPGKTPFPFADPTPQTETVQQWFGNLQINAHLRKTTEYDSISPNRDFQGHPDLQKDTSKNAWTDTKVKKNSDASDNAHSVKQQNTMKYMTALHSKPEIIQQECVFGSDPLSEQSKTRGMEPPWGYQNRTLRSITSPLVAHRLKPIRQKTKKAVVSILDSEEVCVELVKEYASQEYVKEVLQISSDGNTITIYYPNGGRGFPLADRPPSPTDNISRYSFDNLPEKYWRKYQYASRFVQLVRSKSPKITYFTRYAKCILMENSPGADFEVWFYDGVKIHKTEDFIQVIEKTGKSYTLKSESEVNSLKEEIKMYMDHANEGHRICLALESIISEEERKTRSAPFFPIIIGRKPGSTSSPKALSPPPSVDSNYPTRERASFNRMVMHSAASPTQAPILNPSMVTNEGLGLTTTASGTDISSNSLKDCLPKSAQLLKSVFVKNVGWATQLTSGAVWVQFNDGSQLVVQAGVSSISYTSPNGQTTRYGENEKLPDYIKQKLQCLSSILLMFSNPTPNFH

## O=C1Nc2ncnc3c2/C1=C/Nc1cccc(c1)OCCN1C[C@H](O)C[C@@H]1C(=O)N1CCN3CC1 [Compound 171]
PLK4 (h)
  IC50: > 10 µM
AuroraB (h)
  IC50: > 10 µM
GSK3β (h)
  IC50: 0.309 µM

## COCCN1CCOc2cccc(c2)N/C=C2\C(=O)Nc3ncnc(c32)NCCN(C)C(=O)C1 [Compound 161]
PLK4 (h)
  IC50: 5.13 µM
AuroraB (h)
  IC50: 7.41 µM
GSK3β (h)
  IC50: 0.832 µM

## COc1ccc2cc1OCCCCCCC(=O)N(C)CCCN(C)c1ncnc3c1/C(=C/N2)C(=O)N3 [Compound 85]
PLK4 (h)
  IC50: 5.01 µM
AuroraB (h)
  IC50: > 10 µM
GSK3β (h)
  IC50: 1.1 µM

## O=C1Nc2ncnc3c2/C1=C/Nc1cccc(c1)OCCCN1C[C@H](O)C[C@@H]1C(=O)N1CCN3CC1 [Compound 175]
PLK4 (h)
  IC50: > 10 µM
AuroraB (h)
  IC50: > 10 µM
GSK3β (h)
  IC50: 1.58 µM and 1.35 µM

## CN1CCNc2ncnc3c2/C(=C/Nc2ccc(Cl)c(c2)OCCCN(C)[C@H](CO)C1=O)C(=O)N3 [Compound 190]
PLK4 (h)
  IC50: > 10 µM
AuroraB (h)
  IC50: > 10 µM
GSK3β (h)
  IC50: 1.55 µM

## CN1CCCOc2cc(ccc2Cl)N/C=C2\C(=O)Nc3ncnc(c32)N2CCN(CC2)C(=O)[C@H]1CO [Compound 181]
PLK4 (h)
  IC50: > 10 µM
AuroraB (h)
  IC50: > 10 µM
GSK3β (h)
  IC50: 2.24 µM

## O=C1COc2cccc(c2)N/C=C2\C(=O)Nc3ncnc(c32)N2CCN(CC2)C[C@@H](Cc2ccccc2)N1 [Compound 101]
PLK4 (h)
  IC50: 3.16 µM
AuroraB (h)
  IC50: > 10 µM
GSK3β (h)
  IC50: 0.457 µM

## CN1CCCNc2ncnc3c2/C(=C/Nc2ccc(Cl)c(c2)OCCN(C)[C@H](CO)C1=O)C(=O)N3 [Compound 177]
PLK4 (h)
  IC50: 4.37 µM and 7.24 µM
AuroraB (h)
  IC50: 2.51 µM and 6.46 µM
GSK3β (h)
  IC50: 0.0661 µM and 0.0457 µM

## CN1CCNc2ncnc3c2/C(=C/Nc2cccc(c2)OCCN(C)[C@H](CO)C1=O)C(=O)N3 [Compound 164]
PLK4 (h)
  IC50: 3.63 µM
AuroraB (h)
  IC50: 5.25 µM
GSK3β (h)
  IC50: 0.759 µM

## COCCN1CCCOc2cc(ccc2Cl)N/C=C2\C(=O)Nc3ncnc(c32)NCCN(C)C(=O)C1 [Compound 174]
PLK4 (h)
  IC50: > 10 µM
AuroraB (h)
  IC50: > 10 µM
GSK3β (h)
  IC50: 1.62 µM and 1.86 µM

## COCCN1CCCOc2cccc(c2)N/C=C2\C(=O)Nc3ncnc(c32)NCCN(C)C(=O)C1 [Compound 162]
PLK4 (h)
  IC50: 3.09 µM
AuroraB (h)
  IC50: > 10 µM
GSK3β (h)
  IC50: 2.51 µM

## O=C1Nc2ncnc3c2C1=CNc1ccc(Cl)c(c1)OCCCCC(=O)N1CCN3CC1 (mixture of isomers) [Compound 12]
PLK4 (h)
  IC50: > 10 µM

## CN1CCNc2ncnc3c2/C(=C/Nc2cccc(c2)OCCN2C[C@H](O)C[C@@H]2C1=O)C(=O)N3 [Compound 166]
PLK4 (h)
  IC50: 2.19 µM
AuroraB (h)
  IC50: > 10 µM
GSK3β (h)
  IC50: 1.02 µM

## O=C1Nc2ncnc3c2/C1=C/Nc1ccc(Cl)c(c1)OCCN1C[C@H](O)C[C@@H]1C(=O)N1CCN3CC1 [Compound 196]
AuroraB (h)
  IC50: > 10 µM
GSK3β (h)
  IC50: 1.51 µM

## CN1CCCC(=O)N2CCN(CC2)c2ncnc3c2C(=CNc2cccc(c2)C1)C(=O)N3 (mixture of isomers) [Compound 11]
PLK4 (h)
  IC50: 3.09 µM

## COc1ccc2cc1OCCCN(C)[C@H](CO)C(=O)N1CCN(CC1)c1ncnc3c1/C(=C/N2)C(=O)N3 [Compound 204]
AuroraB (h)
  IC50: > 10 µM
GSK3β (h)
  IC50: 1.35 µM

## COCCN1CCOc2cccc(c2)N/C=C2\C(=O)Nc3ncnc(c32)NCCCN(C)C(=O)C1 [Compound 163]
PLK4 (h)
  IC50: 0.589 µM
AuroraB (h)
  IC50: 6.46 µM
GSK3β (h)
  IC50: 0.0631 µM

## COCCN1CCCOc2cc(ccc2Cl)N/C=C2\C(=O)Nc3ncnc(c32)N2CCN(CC2)C(=O)C1 [Compound 180]
PLK4 (h)
  IC50: > 10 µM
AuroraB (h)
  IC50: > 10 µM
GSK3β (h)
  IC50: 3.47 µM and 5.37 µM

## CN1CCCNc2ncnc3c2/C(=C/Nc2cccc(c2)OCCN(C)[C@H](CO)C1=O)C(=O)N3 [Compound 103]
PLK4 (h)
  IC50: 1.86 µM and 4.17 µM
AuroraB (h)
  IC50: 8.71 µM and 7.76 µM
